Data reported in ChEMBL document CHEMBL1909046, “DrugMatrix in vitro pharmacology data”.
pIC50, pKi: −log10 of the molar value.

Experiments:
[1] = target: T1, C-C chemokine receptor type 4 (Homo sapiens, UniProt P51679); type: cell membranes, Chem-1, Membrane; settings: chem-1
T1 sequence (P51679 whole entry): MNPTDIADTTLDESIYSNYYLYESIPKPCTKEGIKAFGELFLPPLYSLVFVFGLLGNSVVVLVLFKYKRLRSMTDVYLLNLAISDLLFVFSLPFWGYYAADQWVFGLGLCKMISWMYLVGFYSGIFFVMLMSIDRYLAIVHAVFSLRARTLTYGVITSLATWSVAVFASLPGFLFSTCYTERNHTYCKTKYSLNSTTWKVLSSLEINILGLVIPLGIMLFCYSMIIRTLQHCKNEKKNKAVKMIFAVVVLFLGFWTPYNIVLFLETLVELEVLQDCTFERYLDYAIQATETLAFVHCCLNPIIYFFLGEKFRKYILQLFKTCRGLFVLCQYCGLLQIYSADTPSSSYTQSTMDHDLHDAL

Glucocorticoid receptor = target: T2, Glucocorticoid receptor (Homo sapiens, UniProt P04150); settings: hela s3
T2 sequence (P04150 whole entry): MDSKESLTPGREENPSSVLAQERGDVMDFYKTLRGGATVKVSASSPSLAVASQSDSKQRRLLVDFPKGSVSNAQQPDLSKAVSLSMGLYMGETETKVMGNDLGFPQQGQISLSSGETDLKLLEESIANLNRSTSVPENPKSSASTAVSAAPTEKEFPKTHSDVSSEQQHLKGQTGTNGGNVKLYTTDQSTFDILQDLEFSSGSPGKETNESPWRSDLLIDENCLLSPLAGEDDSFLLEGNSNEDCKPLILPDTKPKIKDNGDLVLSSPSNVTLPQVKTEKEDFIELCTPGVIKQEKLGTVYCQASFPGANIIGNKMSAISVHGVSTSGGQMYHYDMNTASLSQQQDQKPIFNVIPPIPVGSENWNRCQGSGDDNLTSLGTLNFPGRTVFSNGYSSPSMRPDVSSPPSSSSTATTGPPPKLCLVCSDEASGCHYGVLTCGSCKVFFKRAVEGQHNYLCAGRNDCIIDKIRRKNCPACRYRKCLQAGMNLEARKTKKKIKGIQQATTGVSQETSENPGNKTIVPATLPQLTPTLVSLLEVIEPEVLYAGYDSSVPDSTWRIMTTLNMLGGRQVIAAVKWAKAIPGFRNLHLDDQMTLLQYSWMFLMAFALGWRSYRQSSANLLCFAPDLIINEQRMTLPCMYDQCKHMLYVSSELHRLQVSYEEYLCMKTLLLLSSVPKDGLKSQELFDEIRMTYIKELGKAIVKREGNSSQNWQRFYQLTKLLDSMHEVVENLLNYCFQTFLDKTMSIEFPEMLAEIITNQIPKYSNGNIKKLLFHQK

[2] = target: Matrix metalloproteinase-9 (Homo sapiens, UniProt P14780); experiment: biochemical; type: cell-based;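 note: inhibition of isolated MMP-9 enzyme activity toward a synthetic peptide substrate, from the DrugMatrix protease screening panel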
Matrix metalloproteinase-9, sequence (P14780 whole entry): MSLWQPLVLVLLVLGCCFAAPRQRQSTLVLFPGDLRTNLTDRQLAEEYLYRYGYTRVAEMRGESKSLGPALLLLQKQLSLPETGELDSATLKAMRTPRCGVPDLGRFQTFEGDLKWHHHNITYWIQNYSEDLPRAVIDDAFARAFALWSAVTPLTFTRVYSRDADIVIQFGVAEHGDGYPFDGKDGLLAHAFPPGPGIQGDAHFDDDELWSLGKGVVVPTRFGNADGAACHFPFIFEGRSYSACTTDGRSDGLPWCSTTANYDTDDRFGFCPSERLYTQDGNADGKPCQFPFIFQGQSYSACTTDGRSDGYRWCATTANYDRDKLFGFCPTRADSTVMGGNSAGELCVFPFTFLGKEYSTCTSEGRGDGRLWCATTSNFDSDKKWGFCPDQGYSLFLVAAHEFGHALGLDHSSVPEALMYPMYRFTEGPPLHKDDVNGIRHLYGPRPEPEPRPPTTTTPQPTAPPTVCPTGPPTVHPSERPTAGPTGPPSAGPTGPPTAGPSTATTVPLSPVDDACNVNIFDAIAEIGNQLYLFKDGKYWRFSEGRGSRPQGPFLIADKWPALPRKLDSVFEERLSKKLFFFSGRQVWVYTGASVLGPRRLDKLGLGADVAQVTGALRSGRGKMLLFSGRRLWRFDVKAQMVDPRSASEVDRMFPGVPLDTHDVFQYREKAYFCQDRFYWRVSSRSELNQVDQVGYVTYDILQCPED

[3] = target: T3, Muscarinic acetylcholine receptor M4 (Homo sapiens, UniProt P08173); type: cell membranes, CHO-K1, Membrane; settings: for pIC50: read-out: IC50; for pKi: read-out: Ki
T3 sequence (P08173 whole entry): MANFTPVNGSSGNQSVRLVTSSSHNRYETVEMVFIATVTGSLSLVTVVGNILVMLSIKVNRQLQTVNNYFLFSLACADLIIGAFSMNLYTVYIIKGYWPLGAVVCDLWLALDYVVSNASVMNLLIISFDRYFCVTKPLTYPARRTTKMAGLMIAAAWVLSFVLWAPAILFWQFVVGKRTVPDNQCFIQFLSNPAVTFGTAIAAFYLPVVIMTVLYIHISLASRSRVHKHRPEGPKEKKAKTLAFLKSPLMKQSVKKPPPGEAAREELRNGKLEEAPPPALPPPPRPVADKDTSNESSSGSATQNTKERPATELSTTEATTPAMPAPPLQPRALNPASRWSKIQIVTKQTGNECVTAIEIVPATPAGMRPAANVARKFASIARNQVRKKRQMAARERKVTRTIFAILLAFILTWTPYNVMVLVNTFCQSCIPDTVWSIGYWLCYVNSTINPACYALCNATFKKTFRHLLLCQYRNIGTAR

[4] = target: T4, Angiotensin-converting enzyme (Oryctolagus cuniculus, UniProt P12822); type: tissue-based, Lung;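 note: enzymatic inhibition of angiotensin-converting enzyme measured with FAPGG as the substrate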
T4 sequence (P12822 whole entry): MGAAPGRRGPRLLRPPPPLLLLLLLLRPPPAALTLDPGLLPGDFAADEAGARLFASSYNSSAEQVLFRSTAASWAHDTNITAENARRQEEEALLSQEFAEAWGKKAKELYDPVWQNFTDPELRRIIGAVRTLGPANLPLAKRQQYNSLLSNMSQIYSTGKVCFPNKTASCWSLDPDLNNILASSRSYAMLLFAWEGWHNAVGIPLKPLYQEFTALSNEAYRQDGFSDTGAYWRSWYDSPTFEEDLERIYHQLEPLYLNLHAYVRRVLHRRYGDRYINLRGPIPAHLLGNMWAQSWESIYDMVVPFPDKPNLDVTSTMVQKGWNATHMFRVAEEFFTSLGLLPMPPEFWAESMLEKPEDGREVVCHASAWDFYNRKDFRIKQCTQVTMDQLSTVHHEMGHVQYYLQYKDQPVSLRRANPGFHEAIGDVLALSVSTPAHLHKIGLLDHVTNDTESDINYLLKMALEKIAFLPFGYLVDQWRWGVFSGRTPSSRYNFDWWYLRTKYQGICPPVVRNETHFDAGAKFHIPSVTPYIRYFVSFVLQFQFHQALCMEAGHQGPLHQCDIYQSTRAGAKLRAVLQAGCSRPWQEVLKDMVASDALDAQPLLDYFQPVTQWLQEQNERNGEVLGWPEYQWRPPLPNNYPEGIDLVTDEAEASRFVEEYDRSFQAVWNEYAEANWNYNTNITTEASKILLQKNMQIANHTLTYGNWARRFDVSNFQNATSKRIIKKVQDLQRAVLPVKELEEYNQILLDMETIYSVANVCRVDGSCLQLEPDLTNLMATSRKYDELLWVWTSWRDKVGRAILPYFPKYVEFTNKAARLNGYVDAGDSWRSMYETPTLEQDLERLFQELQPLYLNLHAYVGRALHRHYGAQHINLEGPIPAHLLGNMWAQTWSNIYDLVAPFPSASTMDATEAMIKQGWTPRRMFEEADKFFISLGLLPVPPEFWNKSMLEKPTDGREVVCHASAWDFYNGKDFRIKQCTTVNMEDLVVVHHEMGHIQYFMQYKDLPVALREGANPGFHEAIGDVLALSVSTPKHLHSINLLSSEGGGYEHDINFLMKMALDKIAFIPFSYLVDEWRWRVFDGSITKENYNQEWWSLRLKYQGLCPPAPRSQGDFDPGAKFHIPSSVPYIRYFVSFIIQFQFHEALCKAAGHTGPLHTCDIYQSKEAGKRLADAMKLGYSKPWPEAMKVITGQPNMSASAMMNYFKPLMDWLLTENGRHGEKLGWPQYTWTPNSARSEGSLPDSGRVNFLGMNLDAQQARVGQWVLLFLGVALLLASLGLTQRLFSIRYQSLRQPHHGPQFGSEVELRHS
Note: in other assays of this panel Not Active means under 50% inhibition at 10 µM.

Molecule	IC50 [1]	IC50 (Glucocorticoid receptor)	IC50 [2]	pIC50 [3]	pKi [3]	IC50 [4]	IC50 ([3]; cho-k1)	pIC50 ([2]; read-out: IC50)	Ki [1]	Ki (Glucocorticoid receptor)	Ki [2]	Ki ([3]; cho-k1)	Ki [4]
CN1CCN(CCCN2c3ccccc3Sc3ccc(Cl)cc32)CC1 [PROCHLORPERAZINE]	Not Active	Not Active	Not Active	5.87	6.72	Not Active							
Nc1nc2ccc(OC(F)(F)F)cc2s1 [RILUZOLE]	Not Active	Not Active	Not Active			Not Active	Not Active						
Cc1nc2n(c(=O)c1CCN1CCC(c3noc4cc(F)ccc34)CC1)CCCC2 [RISPERIDONE]	Not Active	Not Active	Not Active			Not Active	Not Active						
C=CCC1(C(C)CCC)C(=O)NC(=O)NC1=O (configuration not stated) [SECOBARBITAL]	Not Active	Not Active				Not Active	Not Active	5.58					
C[C@@H]1CN(c2c(F)c(N)c3c(=O)c(C(=O)O)cn(C4CC4)c3c2F)C[C@H](C)N1 [SPARFLOXACIN]	Not Active	Not Active	Not Active			Not Active	Not Active						
CC/C(=C(\c1ccccc1)c1ccc(OCCN(C)C)cc1)c1ccccc1 [TAMOXIFEN]	Not Active	Not Active	Not Active	5.32	6.17	Not Active							
Nc1nc2nc[nH]c2c(=S)[nH]1 [THIOGUANINE]	Not Active	Not Active	Not Active			Not Active	Not Active						
Cc1cccc(N(C)C(=S)Oc2ccc3ccccc3c2)c1 [TOLNAFTATE]	Not Active	Not Active	Not Active			Not Active	Not Active						
N[C@@H]1[C@H]2CN(c3nc4c(cc3F)c(=O)c(C(=O)O)cn4-c3ccc(F)cc3F)C[C@@H]12 [TROVAFLOXACIN]	Not Active	Not Active	Not Active			Not Active	Not Active						
CC[C@]1(O)C[C@H]2CN(CCc3c([nH]c4ccccc34)[C@@](C(=O)OC)(c3cc4c(cc3OC)N(C=O)[C@H]3[C@@](O)(C(=O)OC)[C@H](OC(C)=O)[C@]5(CC)C=CCN6CC[C@]43[C@@H]65)C2)C1 [VINCRISTINE]	Not Active	Not Active	Not Active			Not Active	Not Active						
CCCOc1ccccc1-c1nc2nn[nH]c2c(=O)[nH]1 [ZAPRINAST]	Not Active	Not Active	Not Active			Not Active	Not Active						
SODIUM NITROPRUSSIDE	Not Active	Not Active	Not Active			Not Active	Not Active		Not Active	Not Active	Not Active	Not Active	Not Active
